Source: patent publication US20250120975A1, “INTEGRIN INHIBITORS FOR TREATMENT OF PRIMARY SCLEROSING CHOLANGITIS” (Pliant Therapeutics, Inc., priority 2023, published 2025)

Key:
pSMAD3 = assay: pSMAD3/SMAD3 MSD assay in mouse liver tissue; assay type: in vivo; details: all doses (100, 300, 1000 mg/kg), 6 weeks
Excerpt: (§1) The tissue source is BALBc.Mdr2-/−male mice that were 6 weeks old. The Mdr2(abcb4)−/− mouse model of sclerosing cholangitis has been previously described and is a model of spontaneously progressive hepatic fibrosis in mice with deletion of the biliary phospholipid flippase on fibrosis-susceptible background (Mdr2(abcb4)^−/−. BALB/c mouse). See N. Ikenaga, et al. (2015) Am J Pathol. 185 (2): 325-334, the entire contents of which are hereby incorporated by reference in their entirety.
(§2) (S)-4-((2-methoxyethyl)(4-(5,6,7,8-tetrahydro-1,8-naphthyridin-2-yl)butyl)amino)-2-(quinazolin-4-ylamino)butanoic acid (or PBS) was dosed once daily orally at 100 mg/kg, 300 mg/kg or 1000 mg/kg (see Table B-2) starting at 6 weeks after birth of the subject and continuing for 6 weeks. All animals were euthanized and necropsied at the end of week 12.
Mouse liver tissues were lysed with RIPA buffer with protease inhibitor cocktail. Total protein concentration was determined by Micro BCA kit. MSD GOLD™ 96 Sm Spot SA Plate was washed three times with 150 μL of PBST and 1 μg/mL of biotinylated anti-SMAD2/3 was added to the plate, 25 μL per well (60 Min incubation under agitation). The plate was washed as before and 12.5 μL of unknown samples plus 12.5 μL of PBST were added in duplicates. […] After wash, 150 μL of 1× read buffer was added and the plate was read using an MSD Sector Imager instrument.

[1] = system: subjects with PSC and suspected liver fibrosis; assay: Phase 2a INTEGRIS-PSC: transient elastography (FibroScan) liver stiffness; assay type: in vivo, human; details: 320 mg, Week 24, compared to an increase on placebo, Example B-5
Excerpt: Transient elastography (TE) utilizes an ultrasound shear wave to assess the elasticity of the liver, that is, how “stiff” the liver tissue is. Fibrosis causes stiffening or hardening of tissue, and TE can be used to diagnose fibrosis and determine the degree of fibrosis. The FibroScan® device (FibroScan® is a registered trademark of ECHOSENS, Paris, France, for medical equipment and software) can be used for TE. (Kemp W, Roberts S., Aust Fam Physician. 2013 July; 42(7):468-71; and Ozturk A. et al., Abdom Radiol (NY), 2022 September; 47 (9): 3037-3050; each of which are hereby incorporated by reference in their entireties).
Each subject underwent an ultrasound-based transient elastography (FibroScan®) assessment at the screening and Week 12 study visits (Parts 1 and 2) and will undergo an ultrasound-based transient elastography (FibroScan®) assessment at the screening, at Week 12 study visits, and at Week 24 (Part 3 only). FibroScan® is a noninvasive technique that uses ultrasound-based transient elastography (TE) to assess liver stiffness measurement (LSM) and determine likelihood of clinically meaningful liver fibrosis.
The LSM, as assessed by TE, is expressed in kilopascals (kPa). Larger values (normal range approximately between 2 and 7 kPa) indicate a greater likelihood of clinically meaningful liver fibrosis. See H. Ehlken, et al. (2016) PloS ONE 11 (10): e0164224 and C. […]

[2] = Plasma and liver concentrations in BALB/c.Mdr2−/− mice at harvest; assay type: in vivo, mouse
Procedure: as §2
Plasma samples were assayed by a qualified non-GLP bioanalytical method. Liver samples were homogenized in five volumes of ice-cold water. For plasma and liver homogenate, 20 μL of sample was extracted with 100 μL methanol: acetonitrile (5:95 v: v) containing 10 ng/mL internal standard. The solution was centrifuged at 4000 RPM for 5 minutes and 70 μL of supernatant transferred to injection plate containing 70 μl water. An aliquot of 10 μL was injected to a Sciex 4000 system. Concentrations of (S)-4-((2-methoxyethyl)(4-(5,6,7,8-tetrahydro-1,8-naphthyridin-2-yl)butyl)amino)-2-(quinazolin-4-ylamino)butanoic acid in mouse plasma and liver homogenate were determined by using Analyst 1.6 software (AB Sciex, Foster City, CA). […] Using this bioanalytical method and four-times dilution of the samples, (S)-4-((2-methoxyethyl)(4-(5,6,7,8-tetrahydro-1,8-naphthyridin-2-yl)butyl)amino)-2-(quinazolin-4-ylamino)butanoic acid can be quantified in the range of 0.5-8000 ng/mL in plasma and liver homogenate.

[3] = system: BALB/c.Mdr2−/− mouse model of biliary fibrosis; assay: Relative and total liver collagen (hydroxyproline); assay type: in vivo; details: 6 weeks
Excerpt: as §1, §2
Liver collagen was determined biochemically as hydroxyproline (OHP). See N. Ikenaga, et al. (2015) Am J Pathol. 185 (2): 325-334, the entire contents of which are hereby incorporated by reference in their entirety. Two fresh liver pieces from the left and right liver lobe (120-160 mg each) were hydrolyzed in 2 mL 6N HCl at a temperature of 110° C. for 16 h. Moreover, 20 μL of hydrolysate was evaporated under N2 and OHP was quantified using the chloramine-T/dimethylamino-benzaldehyde method. OHP levels were used to calculate relative (per 100 mg of wet liver) and total (obtained by multiplying liver weights with relative hepatic OHP) hepatic collagen content.

[4] = 1000 mg/kg, relative to the vehicle control

COCCN(CCCCc1ccc2c(n1)NCCC2)CC[C@H](Nc1ncnc2ccccc12)C(=O)O [Bexotegrast, (S)-4-((2-methoxyethyl)(4-(5,6,7,8-tetrahydro-1,8-naphthyridin-2-yl)butyl)amino)-2-(quinazolin-4-ylamino)butanoic acid]
pSMAD3 levels in liver (pSMAD3): decreased | median liver stiffness by transient elastography (TE) [1]: numerical reduction | median liver stiffness by transient elastography (TE) ([1]; listed as bexotegrast): decrease | plasma and liver concentrations, comparison of dose groups ([2]; 100, 300 and 1000 mg/kg PO/QD, 6 weeks): higher levels in the 1000 mg/kg group | Kp at 6 weeks ([2]; mouse, liver (relative to plasma), BALB/c.Mdr2−/− mice, after 6 weeks of PO/QD dosing, at harvest, read-out: Liver levels (ng/g) relative to the levels seen in the plasma (ng/mL)): 3 to 5 | reduction in total hepatic collagen ([3]; 1000 mg/kg PO/QD): approximately 75% | relative hepatic collagen content (normalized to liver weight) [3, 4]: decreased | total hepatic collagen content [3, 4]: decreased
